Article PMC6072878, “Brasilianoids A–F, New Meroterpenoids From the Sponge-Associated Fungus Penicillium brasilianum” (Frontiers in Chemistry, 2018)
Read-outs that look alike come from different tables or passages of the source.

Key:
[1] = Cytotoxic activity toward tumor cell line A549; type: cell-based; conditions: human, A549 tumor cells
[2] = Cytotoxic activity toward tumor cell line SMMC7721; type: cell-based; conditions: human, SMMC7721 tumor cells
[3] = Cell viability of RAW264.7 macrophages (MTT method); type: cell-based, mouse; conditions: mouse
Method: (§1) 7. Assay for inhibition toward nitric oxide production in RAW264.7 macrophages The experiment was conducted according to a literature procedure.1 Murine monocytic RAW264.7 cells grown in 96-well cell culture plates (2 × 10^5 cells/well) and pretreated with serial concentrations of the compounds 1‒8 for 30 min, followed by stimulation with LPS (1 μg/mL) under a humidified atmosphere with 5% CO2 at 37°C. After 24 h, the NO production of the supernatant was determined by adding the 100 μL of Griess reagent. Subsequently, the MTT
(§2) [3-(4,5-dimethylthiazol-2-yl)-2,5-diphenyltetrazolium bromide] reduction2 was used to evaluate the cell viability, and results were expressed as the mean value of triplicate determinations. The positive control was aminoguanidine.2 […]

[4] = Cytotoxic activity toward tumor cell line U937; type: cell-based; conditions: human, U937 tumor cells
[5] = system: NO production in LPS-induced RAW 264.7 macrophages; test: Inhibition of LPS induced NO production in RAW264.7 macrophages (Griess reagent); type: cell-based, mouse
Method: All compounds were assayed by measuring the inhibitory effects on NO production induced by LPS in mouse macrophage RAW 264.7 cells. The RAW 264.7 cells were seeded in each well of a 96-well plate at a concentration of 5 × 10^5 cells/ml in DMEM medium containing 10% fetal bovine serum, 2 mmol/l glutamine, 100 U/ml penicillin, and 100 μg/ml streptomycin. After incubation at 37°C in a humidified atmosphere of 5% CO2 air for 12 h, cells were treated with LPS (1 μg/ml) and compounds ([…], and compound was dissolved in DMSO to dilute until the final DMSO concentration <0.1%, v/v), then incubation for 24 h at 37°C. NO production was determined by measuring the quantity of nitrite in the culture medium by the Griess reagent. Aminoguanidine was selected as a positive control. A 50 μl of the supernatant of culture medium was mixed with 100 μl of the Griess reagent. Using nitrite to generate a standard curve, nitrite production was measured by a microplate reader at 540 nm. Cell viability was examined by the MTT method (Wu et al., [2016]). The compounds with inhibitory rate more than 50% at a dose of 50 μg/ml were further detected in the gradient concentrations to calculate IC50 values. […]
as §1, §2

HaCaT cells = test: Protection against UVB-induced cell damage in HaCaT cells (MTT assay); type: cell-based; conditions: HaCaT cells, UVB 30 mJ/cm^2, 20 μM, 24 h; UVB alone 70% of normal group
Method: HaCaT cells were seeded at 5 × 10^5 cells per well in 6-well plates and incubated under starvation conditions for 24 h using serum-free MEM. HaCaT cells were exposed to UVB irradiation (UVB lamp: SUV-1000, Sigma-China) at a dose of 30 mJ/cm^2. After UVB irradiation, DMEM medium containing 1 (20 μM) or epigallocatechin gallate (20 μM) was added and the cells were incubated for 24 h, and then the MTT assay was performed.

[6] = system: HBV virus in HepG2.2.15 cells; test: In vitro anti-HBV effects (HBV DNA, real time PCR); type: cell-based; conditions: 10 μM
Method: HepAD38 cells were cultured with DMEM in 48-well plate at 1 × 10^5 cells/well for 24 h, then treated with 10 μM of each compound for 72 h. After 4 days, the cells were washed with precooled PBS for 2 times. HBV progeny DNA of HepAD38 cells were extracted using QIAamp DNA Blood Mini kit (Biomiga) according to the manufacturer's instruction. Total DNA was reversely transcribed using PrimeScript RT reagent Kit (Takara, Dalian, China). PCR amplification was performed on an StepOne Plus real time PCR system (Applied Biosystems, Foster City, CA) using the SYBR Green Master Mix (Applied Biosystems, Foster City, CA). All experiments were performed in triplicate, and the relative levels of assayed HBV DNA were calculated with the delta–delta CT method using lamivudine as a positive control, and normalized to non-treated control. […]
8. Assay for in vitro anti-HBV effects
HepG2. 2. 15 cells were cultured with DMEM in 48-well plate at 1×10^5 cells/well for 24 h, then treated with 10 µM of compounds for 72 h. At d 4, these cells were washed 2 times with precooled PBS, and treated with 10 µM of compounds for 72 h.
HBV progeny DNA of HepG2. 2. 15 cells were extracted using QIAamp DNA Blood Mini kit (Biomiga) according to the manufacturer's instruction. Then total DNA was reverse transcribed using PrimeScript RT reagent Kit (Takara, Dalian, China). The primers were designed and synthesized by Takara, and the sequences of the primers […]
PCR amplification was performed on an StepOne Plus real time PCR system (Applied Biosystems, Foster City, CA) using the SYBR Green Master Mix (Applied Biosystems, Foster City, CA). All experiments were performed in triplicate, and the relative levels of assayed HBV DNA were calculated with the […]
delta‒delta CT method using lamivudine expressions as positive control, and normalized to non-treated control. […]
(Takara, Dalian, China). The primers were designed and synthesized by Takara, the […]
performed on an StepOne Plus real time PCR system (Applied Biosystems, Foster City, CA) using the SYBR Green Master Mix (Applied Biosystems, Foster City, CA). […]

[7] = RAW264.7, MTT, Table 3, read-out: CC50 (μM) Cytotoxicity
[8] = Table S9 of the supplement, read-out: CC50 (M), 50% cytotoxic concentration
[9] = Mus musculus, RAW264.7, read-out: IC50 (M), 50% inhibitory concentration
[10] = RAW264.7 macrophages, RAW264.7, MTT, Table 3, read-out: CC50 (μM) Cytotoxicity
[11] = RAW264.7 macrophages, Table S9 of the supplement, read-out: CC50 (M), 50% cytotoxic concentration
[12] = Mus musculus, RAW264.7, 24 h, LPS 1 μg/ml, 24 h
[13] = Mus musculus, RAW264.7, Table S9 of the supplement, read-out: IC50 (M), 50% inhibitory concentration

| Compound | IC50 [1] [µM] | IC50 [2] [µM] | IC50 [4] [µM] | CC50 at 24 h [3, 10] [µM] | CC50 at 24 h [3, 11] [µM] | inhibition at 50 µg/mL [5, 12] [%] | IC50 [5, 13] [M] | inhibitory rate of DNA expression of the HBV virus [6] [%] | also measured |
| --- | --- | --- | --- | --- | --- | --- | --- | --- | --- |
| C=C1C2(C)CC3C4(C)C(O)C5CC(C)(OC5=O)C4CCC3(C)C13C(=O)OC(C)C3(O)C2=O [Compound 6, (1R, 4S, 5R, 5aS, 5bR, 7R, 8aR, 9R, 11aR, 11bS, 13aS)-5,8a-dihydroxy-1,5a,7,9,11b-pentamethyl-14-methylenedodecahydro-1H,11H-1,4:7,11a-dimethanofuro[3″,4″:3′,4′]cyclohepta[1′,2′:3,4]benzo[1,2-c]oxepine-3,8,11-trione] | > 10 | > 10 | > 10 | – | – | – | – | – | CC50 at 24 h [3, 7]: > 100 µM; CC50 at 24 h [3, 8]: > 50 µM; IC50 [5, 9]: > 5e-05 M |
| C=C1[C@@]2(C)C[C@H]3[C@](C)(CCC(=O)OC)[C@@H](C(C)(C)O)CC[C@]3(C)[C@]1(C(=O)OC)C(=O)[C@@](C)(O)C2=O [Compound 7, preaustinoid D] | > 10 | > 10 | > 10 | > 100 | > 50 | 28 | > 5e-05 | – | – |
| O=C(O[C@@H]1Cc2c(O)cc(O)cc2O[C@@H]1c1cc(O)c(O)c(O)c1)c1cc(O)c(O)c(O)c1 [epigallocatechin gallate, reference compound] | – | – | – | – | – | – | – | – | cell viability after UVB irradiation (HaCaT cells): 75% |
| C=C1[C@@]2(C)C[C@H]3[C@](C)(CCC(=O)OC)[C@@H](C(C)(C)O)CC[C@]3(C)[C@@]13C(=O)O[C@@H](C)[C@@]3(O)C2=O [Compound 5, methyl 3-((3S, 3aR, 5R, 6aS, 7S, 8S, 10aS, 10bR)-3a-hydroxy-8-(2-hydroxypropan-2-yl)-3,5,7,10a-tetramethyl-11-methylene-1,4-dioxodecahydro-1H,3H-5,10b-methanobenzo[3,4]cyclohepta[1,2-c]furan-7-yl)propanoate] | > 10 | > 10 | > 10 | > 100 | > 50 | 36 | > 5e-05 | 10 | – |
| N=C(N)NN [Aminoguanidine, reference compound] | – | – | – | – | – | – | – | – | IC50 ([5]; LPS 1 μg/ml, 24 h, Table 3, read-out: IC50 (μM) NO): 7.62e-06 ± 8e-08 M |
| C=C1[C@@]2(C)C[C@H]3[C@](C)(CCC(=O)OC)[C@@H](C(C)(C)O)CC[C@]3(C)[C@@]13C(=O)O[C@H](C)[C@@]3(O)C2=O [Compound 4, methyl 3-((3R, 3aR, 5R, 6aS, 7S, 8S, 10aS, 10bR)-3a-hydroxy-8-(2-hydroxypropan-2-yl)-3,5,7,10a-tetramethyl-11-methylene-1,4-dioxodecahydro-1H,3H-5,10b-methanobenzo[3,4]cyclohepta[1,2-c]furan-7-yl)propanoate] | > 10 | > 10 | > 10 | > 100 | > 50 | 32 | > 5e-05 | 15 | – |
| C=C1[C@@]2(C)C[C@H]3[C@]4(C)C=CC(=O)OC(C)(C)[C@H]4CC[C@]3(C)[C@]1(C(=O)OC)C(=O)[C@@](C)(O)C2=O [Compound 8, preaustinoid A2] | > 10 | > 10 | > 10 | – | – | – | – | – | CC50 at 24 h [3, 7]: > 100 µM; CC50 at 24 h [3, 8]: > 50 µM; IC50 [5, 9]: > 5e-05 M |
| C=C1C2(C)CC3C4(C)C=CC(=O)OC(C)(C)C4CCC3(C)C13C(=O)OC(C)C3(O)C2=O [Compound 2, (5aS, 5bS, 7R, 8aR, 9S, 11aR, 11bS, 13aS)-8a-hydroxy-1,1,5a, 7,9, 11b-hexamethyl-14-methylene-5a, 5b, 6,7,8a, 9, 11b, 12, 13, 13a-decahydro-1H, 11H-7,11a-methanofuro[3″,4″:3′,4′]cyclohepta[1′,2′:3,4]benzo[1,2-c]oxepine-3,8,11-trione] | > 10 | > 10 | > 10 | > 100 | > 50 | 58 | – | – | inhibition toward NO production (in words) ([5]; LPS-induced RAW 264.7 macrophages): moderate inhibition; IC50 ([5]; Mus musculus, RAW264.7, 24 h, LPS 1 μg/ml, 24 h, Table 3, read-out: IC50 (μM) NO): 3.77e-05 ± 5.25e-06 M |
| Nc1ccn([C@@H]2CS[C@H](CO)O2)c(=O)n1 [lamivudine, reference compound] | – | – | – | – | – | – | – | 75 | – |
